What was measured:
[1] = test system: acidic physiological saline-induced hyperalgesia model; assay: Preventive effect on development of hyperalgesia in a rat model (acidic physiological saline, von Frey test); assay type: in vivo; conditions: male SD rats, 3 mg/kg orally once daily for 10 days, measured on the day following the final administration (FIG. 2)
Description: Test Example 2: Preventive Effect on Development of Hyperalgesia in a Rat Model The following experiment was carried out according to the method as described in Test Example 1. In this test, male SD rats (Sprague-Dawley rats; 6 weeks of age at the start of the test) were employed as 10 rats for each treatment-group. Under ether anesthesia, 100 μl of physiological saline adjusted to pH 4 with acetic acid was injected to the rat's right gastrocnemius muscle twice at an interval of 5 days. Thirty minutes after the 2nd injection and once daily thereafter, a test compound or solvent was administered repeatedly at a volume of 5 ml/kg to the above rats for a total of 10 days. The test compound was used as a suspension in 0.5% MC aqueous solution and orally administered (a group treated with Test Compound), and in a group to which a solvent was administered 0.5% MC aqueous solution alone was orally administered (a group treated with Solvent). On the day following the final administration, the pain threshold (g) was measured in the same manner as the von Frey test as described in Test Example 1. The above rats were placed in a stainless steel cage (750width×210depth×170height in mm) and accommodated thereto for at least 20 minutes; after that the measurement was conducted. From the above results, the followings were elucidated.

[2] = test system: hyperalgesia rats induced with an acidic physiological saline; assay: Effect for pain relief in a hyperalgesia model of rat (acidic physiological saline-induced hyperalgesia, von Frey test); assay type: in vivo; conditions: male SD rats, orally administered 5 and 10 mg/kg, 0.5-3 hours after administration (FIG. 1)
Description: Test Example 1: Effect for Pain Relief in a Hyperalgesia Model of Rat
An acidic physiological saline-induced hyperalgesia model, which is known as a model of diseases accompanied by chronic musculoskeletal pain was made according to the method described in Muscle & Nerve 24, p. 37-46 (2001) with a slight modification.
In this test, male SD rats (Sprague-Dawley rats; 6 weeks of age at the start of the test) were employed. Under ether anesthesia, 100 μl of physiological saline adjusted to pH 4 with acetic acid was injected to the rat's right gastrocnemius muscle twice at an interval of 5 days. At 10th and 11th days from the 2nd injection, the following test was conducted. […] In this connection, the pain threshold of normal rats was approximately 11 g.
The above hyperalgesia rats induced with an acidic physiological saline were placed in a stainless steel cage (750width×210depth×170height in mm) and accommodated thereto for at least 20 minutes. Thereafter, the pain threshold (g) was determined prior to administration of the test compound (0 hour) and 0.5 hour, 1 hour, 1.5 hours, 2 hours and 3 hours after the administration. […]
Hyperalgesia was evaluated by the von Frey test, and the results were indicated by the thresholds (g). […] The pain threshold (g) was calculated according to the W. J. Dixon's up-down method (Annual Review of Pharmacology and Toxicology, 20, p. 441-462 (1980)).

For CCn1c(=O)c2c(nc(/C=C/c3ccc(OC)c(OC)c3)n2C)n(CC)c1=O [Compound 2], the “pain threshold (development of hyperalgesia)” value [1] was “no decrease” and the “pain threshold in comparison with that of the group treated with Solvent” value [2] was “greatly increased”.
